Source: patent US8436012B2, “Imidazopyridin-2-one derivatives” (Daiichi Sankyo Company, Limited, priority 2008, dated 2013)

Tests used:
WM-266-4 cells = experiment: Cell Proliferation Inhibitory Test; assay type: cell-based; details: Homo sapiens, 72 h, cultured three days with test compound, MTT, read-out: 50% cell proliferation inhibitory activity (GI50 value)
How it was run: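 Cells cultured overnight, then exposed to serially diluted compound for three days; cell amount read by MTT. GI50 solved from 100×[(T−T0)/(C−T0)]=50, with T0 the value at time of compound addition and C the untreated three-day control.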

human mTOR = target: T1, human mTOR (Homo sapiens, UniProt P42345); experiment: mTOR Kinase Activity Inhibition Test; assay type: biochemical; details: His-tagged mTOR (1362C), biotinylated peptide substrate, ATP, 3 hours at room temperature, fluorescence resonance energy transfer 665 nm/620 nm; read-out: IC50 value of mTOR enzyme inhibitory activity
T1 construct: the portion corresponding to 1362-2549aa at the C terminus of human mTOR; made in house
T1 sequence (P42345 1362-2549): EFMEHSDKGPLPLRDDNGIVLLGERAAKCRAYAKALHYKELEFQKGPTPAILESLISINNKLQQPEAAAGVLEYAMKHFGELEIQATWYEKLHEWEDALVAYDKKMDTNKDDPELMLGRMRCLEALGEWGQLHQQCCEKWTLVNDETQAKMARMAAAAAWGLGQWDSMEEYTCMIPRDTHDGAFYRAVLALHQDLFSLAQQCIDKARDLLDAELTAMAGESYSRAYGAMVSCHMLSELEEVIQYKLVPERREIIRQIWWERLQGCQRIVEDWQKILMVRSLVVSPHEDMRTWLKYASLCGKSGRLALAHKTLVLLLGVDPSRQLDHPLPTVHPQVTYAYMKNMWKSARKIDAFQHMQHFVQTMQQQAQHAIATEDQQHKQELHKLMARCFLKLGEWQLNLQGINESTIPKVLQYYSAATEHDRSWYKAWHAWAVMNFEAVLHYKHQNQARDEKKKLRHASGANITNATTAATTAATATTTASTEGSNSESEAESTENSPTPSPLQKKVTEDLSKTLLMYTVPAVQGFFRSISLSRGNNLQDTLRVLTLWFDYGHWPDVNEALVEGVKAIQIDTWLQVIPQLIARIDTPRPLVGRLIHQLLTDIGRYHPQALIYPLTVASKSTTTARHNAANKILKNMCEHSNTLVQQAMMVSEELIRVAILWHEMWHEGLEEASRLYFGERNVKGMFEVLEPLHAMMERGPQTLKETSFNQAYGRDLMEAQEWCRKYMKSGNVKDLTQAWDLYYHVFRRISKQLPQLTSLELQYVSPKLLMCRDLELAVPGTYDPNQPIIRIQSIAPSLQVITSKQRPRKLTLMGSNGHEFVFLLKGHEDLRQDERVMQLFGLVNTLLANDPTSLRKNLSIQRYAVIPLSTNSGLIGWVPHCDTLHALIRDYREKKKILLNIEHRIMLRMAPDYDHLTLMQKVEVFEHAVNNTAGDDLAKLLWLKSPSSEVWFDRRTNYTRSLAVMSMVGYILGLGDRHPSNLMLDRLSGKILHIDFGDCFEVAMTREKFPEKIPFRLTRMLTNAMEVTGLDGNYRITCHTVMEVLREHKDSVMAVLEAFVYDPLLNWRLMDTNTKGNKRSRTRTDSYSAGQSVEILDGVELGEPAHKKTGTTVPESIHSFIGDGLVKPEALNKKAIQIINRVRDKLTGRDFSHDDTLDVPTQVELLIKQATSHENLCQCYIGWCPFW
How it was run: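 Purified His-tagged human mTOR (1362–2549aa, from HEK293) was used with biotinylated peptide (8 μg/mL in enzyme solution) in HEPES pH 7.5 with 20 mM MnCl2. Compounds were diluted in 20 μM ATP solution, and the reaction ran 3 h at RT. Phospho-S6K(Thr389) HTRF was read as the 665/620 nm ratio, and IC50 came from % inhibition versus controls.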

Question: `Cc1c(-c2cnc3[nH]c(=O)n(C[C@H]4COCCO4)c3c2)cc(F)c2[nH]ccc12` [Example 128, 1-[(2S)-1,4-Dioxan-2-ylmethyl]-6-(7-fluoro-4-methyl-1H-indol-5-yl)-1,3-dihydro-2H-imidazo[4,5-b]pyridin-2-one] was tested. Which GI50 (WM-266-4 cells) did it give?
Answer: < 3000 nM

Question: And the IC50 (human mTOR)?
Answer: < 50 nM

Question: Which GI50 (WM-266-4 cells) does the source give for `CN(CCO)c1c(-c2cnc3[nH]c(=O)n(C[C@H]4COCCO4)c3c2)cnc2[nH]ccc12` [Example 132, 1-[(2S)-1,4-Dioxan-2-ylmethyl]-6-{4-[(2-hydroxyethyl)(methyl)amino]-1H-pyrrolo[2,3-b]pyridin-5-yl}-1,3-dihydro-2H-imidazo[4,5-b]pyridin-2-one] here?
Answer: 3000 to 25000 nM

Question: What about the IC50 (human mTOR) of the same compound?
Answer: 100 to 5000 nM

Question: How did the GI50 (WM-266-4 cells) turn out when `O=c1[nH]c2ncc(-c3cnc4[nH]ccc4c3)cc2n1C[C@H]1CC[C@H](O)CO1` (racemic) [Example 111, 2,6-Anhydro-1,3,4-trideoxy-1-[2-oxo-6-(1H-pyrrolo[2,3-b]pyridin-5-yl)-2,3-dihydro-1H-imidazo[4,5-b]pyridin-1-yl]-DL-erythro-hexitol] was run?
Answer: < 3000 nM

Question: And the IC50 (human mTOR)?
Answer: < 50 nM

Question: `O=c1[nH]c2ncc(-c3cnc4[nH]ccc4c3)cc2n1C[C@H]1COCCO1` [Example 40, 1-[(2S)-1,4-Dioxan-2-ylmethyl]-6-(1H-pyrrolo[2,3-b]pyridin-5-yl)-1,3-dihydro-2H-imidazo[4,5-b]pyridin-2-one] was tested. Which GI50 (WM-266-4 cells) did it give?
Answer: < 3000 nM

Question: What about the IC50 (human mTOR) of the same compound?
Answer: < 50 nM

Question: How did the GI50 (WM-266-4 cells) turn out when `CO[C@@H]1CCO[C@H](Cn2c(=O)[nH]c3ncc(-c4cnc5[nH]ccc5c4C)cc32)C1` [Example 140, 2,6-Anhydro-1,3,5-trideoxy-4-O-methyl-1-[6-(4-methyl-1H-pyrrolo[2,3-b]pyridin-5-yl)-2-oxo-2,3-dihydro-1H-imidazo[4,5-b]pyridin-1-yl]-D-threo-hexitol] was run?
Answer: < 3000 nM

Question: What about the IC50 (human mTOR) of the same compound?
Answer: < 50 nM

Question: What does the source list for `O=c1[nH]c2ncc(-c3cnc4ccnn4c3)cc2n1CC1CCOCC1` [Example 73, 6-Pyrazolo[1,5-a]pyrimidin-6-yl-1-(tetrahydro-2H-pyran-4-ylmethyl)-1,3-dihydro-2H-imidazo[4,5-b]pyridin-2-one]?
Answer: GI50 (WM-266-4 cells): 3000 to 25000 nM; IC50 (human mTOR): 100 to 5000 nM

Question: Which results are given for `O=c1[nH]c2ncc(-c3cnc4[nH]ccc4c3)cc2n1CC1CCC(F)(F)CC1` [Example 103, 1-[(4,4-Difluorocyclohexyl)methyl]-6-(1H-pyrrolo[2,3-b]pyridin-5-yl)-1,3-dihydro-2H-imidazo[4,5-b]pyridin-2-one]?
Answer: GI50 (WM-266-4 cells): < 3000 nM; IC50 (human mTOR): < 50 nM

Question: With `Nc1n[nH]c2ccc(-c3cnc4[nH]c(=O)n(CC5CCOCC5)c4c3)cc12` [Example 72, 6-(3-Amino-1H-indazol-5-yl)-1-(tetrahydro-2H-pyran-4-ylmethyl)-1,3-dihydro-2H-imidazo[4,5-b]pyridin-2-one] as the compound, how does the GI50 (WM-266-4 cells) read?
Answer: 3000 to 25000 nM

Question: What about the IC50 (human mTOR) of the same compound?
Answer: < 50 nM

Question: Which GI50 (WM-266-4 cells) does the source give for `CN1CCN(CCn2c(=O)[nH]c3ncc(-c4cnc5[nH]ccc5c4)cc32)CC1` [Example 58, 1-[2-(4-Methylpiperazin-1-yl)ethyl]-6-(1H-pyrrolo[2,3-b]pyridin-5-yl)-1,3-dihydro-2H-imidazo[4,5-b]pyridin-2-one] here?
Answer: < 3000 nM

Question: And the IC50 (human mTOR)?
Answer: < 50 nM

Question: `COC1(Cn2c(=O)[nH]c3ncc(-c4cnc5[nH]ccc5c4)cc32)CCOCC1` [Example 68, 1-[(4-Methoxytetrahydro-2H-pyran-4-yl)methyl]-6-(1H-pyrrolo[2,3-b]pyridin-5-yl)-1,3-dihydro-2H-imidazo[4,5-b]pyridin-2-one] was tested. Which GI50 (WM-266-4 cells) did it give?
Answer: < 3000 nM

Question: What about the IC50 (human mTOR) of the same compound?
Answer: < 50 nM

Question: With `Cc1nc2[nH]c(=O)n(C[C@H]3COCCO3)c2cc1-c1cnc2[nH]cc(Cl)c2c1` [Example 46, 6-(3-Chloro-1H-pyrrolo[2,3-b]pyridin-5-yl)-1-[(2S)-1,4-dioxan-2-ylmethyl]-5-methyl-1,3-dihydro-imidazo[4,5-b]pyridin-2-one] as the compound, how does the GI50 (WM-266-4 cells) read?
Answer: < 3000 nM

Question: And the IC50 (human mTOR)?
Answer: < 50 nM

Question: `O=c1[nH]c2ncc(-c3cnc4[nH]ccc4n3)cc2n1CC1CCOCC1` [Example 75, 6-(5H-Pyrrolo[2,3-b]pyrazin-2-yl)-1-(tetrahydro-2H-pyran-4-ylmethyl)-1,3-dihydro-2H-imidazo[4,5-b]pyridin-2-one] was tested. Which GI50 (WM-266-4 cells) did it give?
Answer: < 3000 nM

Question: And the IC50 (human mTOR)?
Answer: 50 to 100 nM

Question: For `O=c1[nH]c2ncc(-c3ccc4[nH]ccc4c3)cc2n1CC1CC1` [Example 1, 1-(Cyclopropylmethyl)-6-(1H-indol-5-yl)-1,3-dihydro-2H-imidazo[4,5-b]pyridin-2-one], which GI50 (WM-266-4 cells) is on record?
Answer: < 3000 nM

Question: And the IC50 (human mTOR)?
Answer: < 50 nM

Question: For `Cc1c[nH]c2ncc(-c3cnc4[nH]c(=O)n(C[C@H]5COCCO5)c4c3)c(C)c12` [Example 124, 6-(3,4-Dimethyl-1H-pyrrolo[2,3-b]pyridin-5-yl)-1-[(2S)-1,4-dioxan-2-ylmethyl]-1,3-dihydro-2H-imidazo[4,5-b]pyridin-2-one], which GI50 (WM-266-4 cells) is on record?
Answer: < 3000 nM

Question: And the IC50 (human mTOR)?
Answer: < 50 nM

Question: Which results are given for `Cc1c[nH]c2ncc(-c3cnc4[nH]c(=O)n(C[C@H]5CC[C@@H](O)CO5)c4c3)c(C)c12` [Example 144, 2,6-Anhydro-1,3,4-trideoxy-1-[6-(3,4-dimethyl-1H-pyrrolo[2,3-b]pyridin-5-yl)-2-oxo-2,3-dihydro-1H-imidazo[4,5-b]pyridin-1-yl]-L-threo-hexitol]?
Answer: GI50 (WM-266-4 cells): < 3000 nM; IC50 (human mTOR): < 50 nM

Question: `O=c1[nH]c2ncc(-c3cnc4[nH]ccc4c3Cl)cc2n1C[C@H]1COCCO1` [Example 117, 6-(4-Chloro-1H-pyrrolo[2,3-b]pyridin-5-yl)-1-[(2S)-1,4-dioxan-2-ylmethyl]-1,3-dihydro-2H-imidazo[4,5-b]pyridin-2-one] was tested. Which GI50 (WM-266-4 cells) did it give?
Answer: < 3000 nM

Question: What about the IC50 (human mTOR) of the same compound?
Answer: < 50 nM

Question: With `CS(=O)(=O)N1CCC(Cn2c(=O)[nH]c3ncc(-c4ccc5[nH]ccc5c4)cc32)CC1` [Example 9, 6-(1H-Indol-5-yl)-1-{[1-(methanesulfonyl)piperidin-4-yl]methyl}-1,3-dihydro-2H-imidazo[4,5-b]pyridin-2-one] as the compound, how does the GI50 (WM-266-4 cells) read?
Answer: < 3000 nM

Question: And the IC50 (human mTOR)?
Answer: < 50 nM

Question: With `Cc1nc2[nH]c(=O)n(CC3CCOCC3)c2cc1-c1ccc2[nH]ccc2c1` [Example 7, 6-(1H-Indol-5-yl)-5-methyl-1-(tetrahydro-2H-pyran-4-ylmethyl)-1,3-dihydro-2H-imidazo[4,5-b]pyridin-2-one] as the compound, how does the GI50 (WM-266-4 cells) read?
Answer: < 3000 nM

Question: And the IC50 (human mTOR)?
Answer: < 50 nM

Question: How did the GI50 (WM-266-4 cells) turn out when `Cc1c[nH]c2ncc(-c3cnc4[nH]c(=O)n(CC5CCOCC5)c4c3)cc12` [Example 37, 6-(3-Methyl-1H-pyrrolo[2,3-b]pyridin-5-yl)-1-(tetrahydro-2H-pyran-4ylmethyl)-1,3-dihydro-2H-imidazo[4,5-b]pyridin-2-one] was run?
Answer: < 3000 nM

Question: And the IC50 (human mTOR)?
Answer: < 50 nM

Question: What does the source list for `O=c1[nH]c2ncc(-c3cnc4[nH]ccc4c3)cc2n1C[C@H]1CC[C@H](O)CC1` [Example 101, 1-[(trans-4-Hydroxycyclohexyl)methyl]-6-(1H-pyrrolo[2,3-b]pyridin-5-yl)-1,3-dihydro-2H-imidazo[4,5-b]pyridin-2-one]?
Answer: GI50 (WM-266-4 cells): < 3000 nM; IC50 (human mTOR): < 50 nM

Question: What does the source list for `CO[C@H]1CCC[C@@H](Cn2c(=O)[nH]c3ncc(-c4cnc5[nH]ccc5c4)cc32)C1` (racemic) [Example 105, 1-{[cis-3-Methoxycyclohexyl]methyl}-6-(1H-pyrrolo[2,3-b]pyridin-5-yl)-1,3-dihydro-2H-imidazo[4,5-b]pyridin-2-one]?
Answer: GI50 (WM-266-4 cells): < 3000 nM; IC50 (human mTOR): < 50 nM

Question: `N#Cc1c(-c2cnc3[nH]c(=O)n(CC4CCOCC4)c3c2)cnc2[nH]ccc12` [Example 91, 5-[2-Oxo-1-(tetrahydro-2H-pyran-4-ylmethyl)-2,3-dihydro-1H-imidazo[4,5-b]pyridin-6-yl]-1H-pyrrolo[2,3-b]pyridine-4-carbonitrile] was tested. Which GI50 (WM-266-4 cells) did it give?
Answer: < 3000 nM

Question: What about the IC50 (human mTOR) of the same compound?
Answer: 100 to 5000 nM
